The test system of one experiment is F35T cells. The experiment is described as follows: Foci reduction in FECD (CAG10-Cy3 FISH, foci per nucleus). It is filed as cell-based. Conditions: F35T cells, 48 h treatment, foci per nucleus; read-out: FECD EC50, 48 h. The method, then:
F35T cells were cultured in media containing Opti-MEM (ThermoFisher) supplemented with 8% FBS, 20 μg/mL ascorbic acid, […] CaCl2, 0.08% chondroitin sulfate, 1×Pen/Strep, 100 μg/mL bovine pituitary extract, 5 ng/mL epidermal growth factor, and 20 ng/mL nerve growth factor. Throughout the culture, cells were maintained in an incubator at 37° C. and 5% CO2. Media was refreshed every 48 hours. Once cells reached adequate confluency, they were harvested and seeded in 96 well plates with a density of 5000 cells per well in 200 μL of the supplemented Opti-MEM media. Cells were returned to the incubator and left to settle for 24 hours at 37° C. and 5% CO2. Cells were then treated in 8-point dose response with compounds or negative controls and incubated for 48 hours at 37° C. and 5% CO2. After treatment, cells were fixed with 4% PFA for 20 minutes at room temperature, followed by permeabilization with 70% ethanol. Cells were incubated at −20° C. for a minimum of 1 hour and maximum of 72 hours, after which the ethanol was removed, and cells were washed with PBS. Cells were rehydrated with 30% formamide and 2×SSC buffer for 10 minutes at room temperature. Cells were then incubated overnight at 37° C. in the hybridization solution containing 30% formamide, 2×SSC, 55 mg/mL dextran sulfate, 2.75 mg/mL bovine serum albumin, 0.2 μg/mL Herring sperm DNA, 1% vanadyl-ribonucleoside complex, and 0.05% 10 μM CAG10-Cy3 probe. Cells were washed twice with 30% formamide in 2×SSC, incubating the cells while shaking with the second wash at 37° C. and 200 rpm for 60 minutes. Cells were stained with 5 mg/mL DAPI 1:1000 in PBS, incubating at room temperature for 5 minutes. Cells were then washed with PBS and sealed with adhesive foil, with each well containing a final volume of 150 μL PBS. Cells were imaged on a Cytation 5 and analyzed on a foci per nucleus basis.

In experiment [1] the test system is Myotonic Dystrophy 1 affected patient fibroblasts (Coriel GM04602; 1600 CTG repeats). The experiment is described as follows: DM1 foci reduction assay (EC50 assay; CAG10-Cy3 FISH, foci per nucleus). Conditions: Homo sapiens, Fibroblast; DM1 patient fibroblasts, 48 h treatment, foci per nucleus; read-out: DM1 EC50, 48 h. It is filed as cell-based. The gist of the method:
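Foci per nucleus counted by 20× imaging of 4 areas per well, after overnight FISH with 5 nM CAG10-Cy3 and DAPI staining of fixed, permeabilized cells. DM1 fibroblasts (GM04602, 1600 CTG) were dosed 48 h at 37 °C, 8 points, 3-fold dilutions, 3 μM top concentration.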

We go through 23 compounds from patent publication US20250368628A1, “METHODS AND COMPOUNDS FOR MODULATING INHERITED GENETIC DISEASES” (Design Therapeutics, Inc., priority 2022, published 2025).

Take `CCN(CC)CCCC[C@H](NC(=O)c1ccc(C(C)(C)C)cc1)C(=O)NCCOCCOCCOCCOCCOCCNC(=O)CCNC(=O)c1nc(NC(=O)c2cc(NC(=O)CCNC(=O)c3nc(NC(=O)CCCNC(=O)c4cc(NC(=O)c5nc(NC(=O)CCNC(=O)c6cc(NC(=O)c7nccn7C)cn6C)cn5C)cn4C)cn3C)cn2C)cn1C` [Compound B-92]: the results for the EC50 (in the experiment on F35T cells; in experiment [1]) were 500 to 1000 nM and 100 to 500 nM, respectively.
Turning to `CN1CC(C2CCN(C(=O)CCNC(=O)c3nc(NC(=O)c4cc(NC(=O)CCNC(=O)c5nc(NC(=O)CCCNC(=O)c6cc(NC(=O)c7nc(NC(=O)CCNC(=O)c8cc(NC(=O)c9nccn9C)cn8C)cn7C)cn6C)cn5C)cn4C)cn3C)CC2)C1` [Compound B-143], the half-maximal effective concentration (EC50) (in the experiment with F35T cells; in experiment [1]) was 100 to 500 nM each time.
Consider `Cn1cc(NC(=O)c2nc(NC(=O)CCNC(=O)c3cc(NC(=O)c4nccn4C)cn3C)cn2C)cc1C(=O)NCCCC(=O)Nc1cn(C)c(C(=O)NCCC(=O)Nc2cc(C(=O)Nc3cn(C)c(C(N)=O)n3)n(C)c2)n1` [Compound B-308], for which the EC50 (usually the concentration needed to bring the measured effect to its halfway point) is < 100 nM with F35T cells and 100 to 500 nM in experiment [1].
On the same counts, the results for `COCCOCCOCCOCCN(CCOCCOCCOCCOC)C(=O)CCCCn1cc(NC(=O)c2nc(NC(=O)CCNC(=O)c3cc(NC(=O)c4nccn4C)cn3C)cn2C)cc1C(=O)NCCCC(=O)Nc1cn(C)c(C(=O)NCCC(=O)Nc2cc(C(=O)Nc3cn(C)c(C(=O)NCCC(=O)N4CCC(N5CCNCC5)CC4)n3)n(C)c2)n1` [Compound B-164] are 100 to 500 nM and 500 to 1000 nM.
On the same counts, the results for `Cn1cc(NC(=O)c2nccn2C)cc1C(=O)NCCC(=O)Nc1cn(C)c(C(=O)Nc2cc(C(=O)NCCCC(=O)Nc3cn(C)c(C(=O)NCCC(=O)Nc4cc(C(=O)Nc5cn(C)c(C(=O)NCCC(=O)N6CCC(C#CC#CC7CCNCC7)CC6)n5)n(C)c4)n3)n(CCCCN)c2)n1` [Compound B-281] are < 100 nM and < 100 nM.
On to `CC(Nc1cc(C(=O)NCCC(=O)Nc2cn(C)c(C(=O)Nc3cc(C(=O)NCCCC(=O)Nc4cn(C)c(C(=O)NCCC(=O)Nc5cc(C(=O)Nc6cn(C)c(C(=O)NCCC(=O)NCCOCCOCCOCCOCCOCCOCCOCCOCCOCCOCCN)n6)n(C)c5)n4)n(C)c3)n2)n(C)c1)c1nccn1C` (stereo not shown) [Compound B-81], for which the EC50 (with F35T cells; in experiment [1]) was > 1000 nM in each case.
Regarding `CN(CCCNC(=O)CCNC(=O)c1nc(NC(=O)c2cc(NC(=O)CCNC(=O)c3nc(NC(=O)CCCNC(=O)c4cc(NC(=O)c5nc(NC(=O)CCNC(=O)c6cc(NC(=O)c7nccn7C)cn6C)cn5C)cn4C)cn3C)cn2C)cn1C)CCCNC(=O)c1cccc(C(=O)O)c1` [Compound B-35], the EC50 fell in the range of 100 to 500 nM in the experiment on F35T cells and 500 to 1000 nM in experiment [1].
Take `COCCOCCOCCOCCN(CCCCCn1cc(NC(=O)CCNC(=O)c2nc(NC(=O)CCCNC(=O)c3cc(NC(=O)c4nc(NC(=O)CCNC(=O)c5cc(NC(=O)c6nccn6C)cn5C)cn4C)cn3C)cn2C)cc1C(=O)Nc1cn(C)c(C(=O)NCCC(=O)N2CCC(N3CCNCC3)CC2)n1)CCOCCOCCOCCOC` [Compound B-158]: the EC50 (in the experiment on F35T cells; in experiment [1]) was > 1000 nM throughout.
Turning to `CCNC(=O)c1nc(NC(=O)c2cc(NC(=O)CCNC(=O)c3nc(NC(=O)CCCNC(=O)c4cc(NC(=O)c5nc(NC(=O)CCNC(=O)c6cc(NC(=O)c7nccn7C)cn6C)cn5C)cn4C)cn3C)cn2C)cn1C` [Compound B-312], the EC50 (in the experiment on F35T cells; in experiment [1]) was < 100 nM in each case.
For the compound `CCCNC(=O)CCNC(=O)c1nc(NC(=O)CCNC(=O)c2cc(NC(=O)c3nc(NC(=O)CCCNC(=O)c4cc(NC(=O)c5nc(NC(=O)CCNC(=O)c6cc(NC(C)c7nccn7C)cn6C)cn5C)cn4C)cn3C)cn2C)cn1C` (stereo not shown) [Compound B-74], the EC50 with F35T cells is 500 to 1000 nM; in experiment [1] it was > 1000 nM.
In the same order, the values of `CC(=O)NCCCCCCn1cc(NC(=O)c2nc(NC(=O)CCNC(=O)c3cc(NC(=O)c4nccn4C)cn3C)cn2C)cc1C(=O)NCCCC(=O)Nc1cn(C)c(C(=O)NCCC(=O)Nc2cc(C(=O)Nc3cn(C)c(C(=O)NCCC(=O)N4CCC(C#CC#CC5CCN(C(=O)OC(C)(C)C)CC5)CC4)n3)n(C)c2)n1` [Compound B-356] are 500 to 1000 nM and > 1000 nM.
On the same counts, the results for `Cn1cc(NC(=O)c2nccn2C)cc1C(=O)NCCC(=O)Nc1cn(C)c(C(=O)Nc2cc(C(=O)NCCCC(=O)Nc3cn(C)c(C(=O)NCCC(=O)Nc4cc(C(=O)Nc5cn(C)c(C(=O)NCCC(=O)N6CCC(C#CC#CC7CCNCC7)CC6)n5)n(C)c4)n3)n(CCN)c2)n1` [Compound B-267] are < 100 nM and < 100 nM.
On to `Cn1cc(NC(=O)c2nc(NC(=O)CCNC(=O)c3cc(NC(=O)c4nccn4C)cn3C)cn2C)cc1C(=O)NCCCC(=O)Nc1cn(C)c(C(=O)NCCC(=O)Nc2cc(C(=O)Nc3cn(C)c(C(=O)NCCC(=O)NCCCCC#N)n3)n(C)c2)n1` [Compound B-113], for which the EC50 (with F35T cells; in experiment [1]) was < 100 nM each time.
In the case of `Cn1cc(NC(=O)c2nc(NC(=O)CCNC(=O)c3cc(NC(=O)c4nccn4C)cn3C)cn2C)cc1C(=O)NCCCC(=O)Nc1cn(C)c(C(=O)NCCC(=O)Nc2cc(C(=O)Nc3cn(C)c(C(=O)NCCC(=O)NCCOCCOCCOc4ccc(N)cc4)n3)n(C)c2)n1` [Compound B-14], the EC50 (in the experiment on F35T cells; in experiment [1]) was 100 to 500 nM in each case.
Take `Cn1cc(NC(=O)c2nc(NC(=O)CCNC(=O)c3cc(NC(=O)c4nccn4C)cn3C)cn2C)cc1C(=O)NCCCC(=O)Nc1cn(C)c(C(=O)NCCC(=O)Nc2cc(C(=O)Nc3cn(C)c(C(=O)NCCCN(C(=O)OC(C)(C)C)C(CO)CO)n3)n(C)c2)n1` [Compound B-390]: the 50% effective concentration (EC50) (in the experiment with F35T cells; in experiment [1]) was 100 to 500 nM in each case.
For the compound `COCCOCCOCCOCCOCCOCCC(=O)NCCCCCCn1cc(NC(=O)c2nc(NC(=O)CCNC(=O)c3cc(NC(=O)c4nccn4C)cn3C)cn2C)cc1C(=O)NCCCC(=O)Nc1cn(C)c(C(=O)NCCC(=O)Nc2cc(C(=O)Nc3cn(C)c(C(=O)NCCC(=O)N4CCC(C#CC#CC5CCN(C(C)=O)CC5)CC4)n3)n(C)c2)n1` [Compound B-239], the EC50 (in the experiment with F35T cells; in experiment [1]) was 100 to 500 nM in each case.
For the compound `CN(CCCC#Cc1cccc(C(=O)O)c1)CCCNC(=O)c1nc(NC(=O)c2cc(NC(=O)CCNC(=O)c3nc(NC(=O)CCCNC(=O)c4cc(NC(=O)c5nc(NC(=O)CCNC(=O)c6cc(NC(=O)c7nccn7C)cn6C)cn5C)cn4C)cn3C)cn2C)cn1C` [Compound B-263], the concentration giving a half-maximal response (EC50) in the experiment on F35T cells was < 100 nM; in experiment [1], 100 to 500 nM.
On the same counts, the results for `CC(=O)N1CCC(N2CCN(C(=O)CCNC(=O)c3nc(NC(=O)c4cc(NC(=O)CCNC(=O)c5nc(NC(=O)CCCNC(=O)c6cc(NC(=O)c7nc(NC(=O)CCNC(=O)c8cc(NC(=O)c9nccn9C)cn8C)cn7C)cn6C)cn5C)cn4C)cn3C)CC2)CC1` [Compound B-119] are 500 to 1000 nM and 100 to 500 nM.
On the same counts, the results for `CCCNC(=O)CCNC(=O)c1nc(NC(=O)c2cc(NC(=O)CCNC(=O)c3nc(NC(=O)CCCNC(=O)c4cc(NC(=O)c5nc(NC(=O)CCNC(=O)c6cc(NC(=O)c7nccn7C)cn6C)cn5C)cn4CCCCN)cn3C)cn2C)cn1C` [Compound B-279] are < 100 nM and < 100 nM.
In the same order, the values of `CCCNC(=O)CCNC(=O)c1nc(NC(=O)c2cc(NC(=O)CCNC(=O)c3nc(NC(=O)CCNC(=O)c4cc(NC(=O)c5nc(NC(=O)CCNC(=O)c6cc(NC(=O)c7nccn7C)cn6C)cn5C)cn4C)cn3C)cn2C)cn1C` [Compound B-315] are > 1000 nM and > 1000 nM.
As for `Cn1cc(NC(=O)c2nccn2C)cc1C(=O)NCCC(=O)Nc1cn(C)c(C(=O)Nc2cc(C(=O)NCC[C@@H](N)C(=O)Nc3cn(C)c(C(=O)NCCC(=O)Nc4cc(C(=O)Nc5cn(C)c(C(=O)CCCC(=O)N6CCCCC6)n5)n(C)c4)n3)n(C)c2)n1` [Compound B-406], the EC50 with F35T cells was > 1000 nM; in experiment [1], 100 to 500 nM.
In the same order, the values of `CC(C)N1CCC(C#CC#CC2CCN(CCOCCOCCOCCNC(=O)CCNC(=O)c3nc(NC(=O)c4cc(NC(=O)CCNC(=O)c5nc(NC(=O)CCCNC(=O)c6cc(NC(=O)c7nc(NC(=O)CCNC(=O)c8cc(NC(=O)c9nccn9C)cn8C)cn7C)cn6C)cn5C)cn4C)cn3C)CC2)CC1` [Compound B-124] are 500 to 1000 nM and 100 to 500 nM.
Turning to `CCN(CC)CCCC[C@H](NC(=O)C(C)(C)C)C(=O)NCCOCCOCCOCCOCCOCCNC(=O)CCNC(=O)c1nc(NC(=O)c2cc(NC(=O)CCNC(=O)c3nc(NC(=O)CCCNC(=O)c4cc(NC(=O)c5nc(NC(=O)CCNC(=O)c6cc(NC(=O)c7nccn7C)cn6C)cn5C)cn4C)cn3C)cn2C)cn1C` [Compound B-90], the EC50 in the experiment on F35T cells is > 1000 nM; in experiment [1] it was 500 to 1000 nM.
